{Cy3} = Cy3 fluorescent dye label
How the values were obtained:
hippocampal neurons [1] = experiment: Neuronal calcium (Fura-2) during perfusion of liposomes; format: cell-based, rat; settings: continuous perfusion of N-Rh-DOPE labeled liposomes; 100 μM NMDA as positive stimulus
Description: FIG. 4. […] (a) Neurons were treated with 100 μg/ml heparin prior to incubation with AL-Cy3ON. Scale bar: 5 μm. (b) Fura-2 ratios in hippocampal neurons were not altered during perfusion of anionic liposomes labeled with N—Rh-DOPE but increased in response to 100 μM NMDA. Data were from a representative field of 23 neurons from among 110 neurons imaged in 5 experiments. (c) Image taken at 24 min (*) indicated the uptake of N-Rh-DOPE within the same neurons in the field.
Addition of activated a2-M (a2-M*) to cortical neurons caused a Ca^2+ influx that was both spatially and temporally discrete. […] To examine whether the endocytosis of anionic liposomes via LRP caused Ca^2+ influx into neurons, neuronal calcium currents were studied during a continuous perfusion of liposomes labeled with N—Rh-DOPE.
Liposomes labeled with N—Rh-DOPE were prepared in a manner identical to that described in Example 1 for liposomes encapsulating Cy3ONs except that the lipid films contained 1-2.5 mole percent N—Rh-DOPE and the liposomes were prepared with buffer alone (i.e., without ONs).

[2] = test system: Mouse embryonic fibroblasts (MEF-1); experiment: Uptake of Cy3-ONs by LRP-expressing MEF-1 cells; format: cell-based; settings: 1 μM Cy3-ONs, 1 h at 37° C.
Description: (§1) The ability of this delivery system to deliver DNA to cell types other than neurons was investigated by studying uptake of Cy3-oligonucleotides delivered by anionic DOPC/DOPG liposomes in cells derived from a variety of tissues. CHO, HeLa, HuH-7, MDCK and MEF-1 cells all avidly internalized AL-Cy3ONs within 1 h of incubation (FIG. 2). Uptake of AL-Cy3ONs occurred in the presence of serum in the culture medium. Similar to the uniform uptake seen in primary neurons, Cy3 fluorescence was visible in almost all cells exposed to AL-Cy3ONs in all cell types studied (Table 1). On the other hand, uptake of Cy3ON either without a delivery vector or complexed to cationic DC-Chol/DOPE liposomes was cell type-dependent, ranging from ˜5% in MDCK cells to ˜50% in HeLa cells (Table 1).
The endocytosis of AL-Cy3ONs in immortalized mouse embryonic fibroblast cell lines that expressed LRP (MEF-1) was compared to endocytosis of AL-Cy3ONs in immortalized mouse embryonic fibroblast cell lines that lacked the receptor (PEA-13).

[3] = test system: Chinese hamster ovary cell line (CHO-K1); experiment: Uptake of Cy3-ONs by CHO-K1 cells; format: cell-based; settings: 1 μM Cy3-ONs, 1 h at 37° C.
Description: as §1

[4] = test system: Human cervical carcinoma (HeLa); experiment: Uptake of Cy3-ONs by HeLa cells; format: cell-based; settings: 1 μM Cy3-ONs, 1 h at 37° C.
Description: as §1

Human hepatoma (Huh-7) = experiment: Uptake of Cy3-ONs by Huh-7 cells; format: cell-based; settings: 1 μM Cy3-ONs, 1 h at 37° C.
Description: as §1

[5] = test system: Canine kidney cell line (MDCK); experiment: Uptake of Cy3-ONs by MDCK cells; format: cell-based; settings: 1 μM Cy3-ONs, 1 h at 37° C.
Description: as §1

[6] = test system: Primary rat hippocampal neurons; experiment: Uptake of Cy3-ONs by hippocampal neurons; format: cell-based
Description: Hippocampal Cell Culture. Primary cultures of hippocampal neurons were prepared from neonatal rat pups (P1 or P2) as previously described (Dubinsky, 1993). Neurons were plated onto 22-mm square glass coverslips coated with collagen and polylysine, at a density of 150,000 cells per coverslip. Neurons were cultured for 24-30 hours in minimum essential medium (MEM) with 10% NUSERUM (Collaborative Research) to increase attachment to the glass substrate, after which the growing medium was replaced with Neurobasal medium with B27 supplements (Life Technologies, Rockville, Md.). Fluorodeoxyuridine (15 μg/ml) was added to restrict the growth of non-neuronal cells. Cultures were maintained at 37° C. in a humidified atmosphere containing 5% CO2 for 6-9 days before use.
Uptake of Cy3-ONs by hippocampal neurons. […] Uninternalized ONs, liposomes or complexes were removed by several washes with L15 (Leibovitz's) medium. Cells were then fixed in 4% paraformaldehyde for 15 minutes at room temperature. For low temperature studies, neurons were incubated at 4° C. with AL-Cy3ONs for 10 minutes and then fixed. The cells were imaged immediately after fixation to avoid a potential redistribution of ONs (Grzanna et al., 1998).
(§2) Confocal Microscopy and Image Analysis. Imaging was performed on a Leica TCS 4D confocal microscope (Deerfield, Ill.) equipped with a Mercury/Xenon lamp and argon/krypton laser. Cells were excited using the 488 nm laser line to detect Oregon Green 488-Transferrin and Alexa488-Dextran, and the emitted fluorescence was collected using a 515 long-pass filter. The 568 nm laser line was used to excite Cy3 and N—Rh-DOPE (LP590 emission). Cells were imaged at a plane midway between the substrate-attached plasma membrane and the top of the cell, such that neuronal nuclei were clearly identifiable. In some cases, the entire volume of the cell was scanned in 0.5 μm increments. Optimal images were obtained by averaging 16 images in the line-scan mode at the same fixed gains for all experiments. […]

hippocampal neurons [7] = experiment: Colocalization with transferrin (early and recycling endosomes); format: cell-based, rat; settings: delivered in anionic liposomes
Description: (§3) Colocalization of Lipids and Oligonucleotides with Transferrin and Dextran. Intracellular fates of endocytosed liposomes and ONs were determined by comparing their intracellular distributions with that of Oregon Green 488-Transferrin (OG-Tf) and Alexa488-dextran (Molecular Probes, Eugene, Oreg.) used as markers for the recycling and lysosomal compartments, respectively. Neurons were incubated with AL-Cy3ONs and either 100 μg/ml OG-Tf, for 30 minutes, 1 hour or 3 hours; or with 1 mg/ml Alexa488-dextran for 3 hours. For the lipid transport experiments, neurons were incubated with liposomes labeled with N—Rh-DOPE and either OG-TF, for 30 minutes, 1 hour, or 3 hours; or with 1 mg/ml Alexa-dextran for 3 hours. In another set of experiments, neurons were incubated with AL-Cy3ONs for 30 minutes, rinsed and chased with 1 mg/ml Alexa 488 dextran for 3 hours. Cells were rinsed and fixed for imaging as described above.
Confocal Microscopy and Image Analysis. Imaging was performed on a Leica TCS 4D confocal microscope (Deerfield, Ill.) equipped with a Mercury/Xenon lamp and argon/krypton laser. Cells were excited using the 488 nm laser line to detect Oregon Green 488-Transferrin and Alexa488-Dextran, and the emitted fluorescence was collected using a 515 long-pass filter. The 568 nm laser line was used to excite Cy3 and N—Rh-DOPE (LP590 emission). Cells were imaged at a plane midway between the substrate-attached plasma membrane and the top of the cell, such that neuronal nuclei were clearly identifiable. In some cases, the entire volume of the cell was scanned in 0.5 μm increments. Optimal images were obtained by averaging 16 images in the line-scan mode at the same fixed gains for all experiments. All fluorescent images presented in figures were equally contrast enhanced using ADOBE PHOTOSHOP (Adobe, Mountain View, Calif.).
(§4) All image analysis was performed using the METAMORPH Imaging System software (Universal Imaging, Downington, Pa.). The cell outlines for each set of double-labeled fields were traced out manually in the corresponding differential interference contrast image and then used to mask the fluorescence images. In each cell, the total fluorescence intensity was measured and the percent of Cy3 label or rhodamine label that colocalized with transferrin or dextran was calculated.

hippocampal neurons [8] = experiment: Colocalization with dextran (late endosomes and lysosomes); format: cell-based, rat; settings: 3 h, delivered in anionic liposomes
Description: as §3
as §2, with “increments.” for “increments. Optimal images were obtained by averaging 16 images in the line-scan mode at the same fixed gains for all experiments.”
as §4

| Molecule | Calcium response (Fura-2 ratios) in hippocampal neurons (hippocampal neurons [1]) | Percent of cells with intracellular Cy3 fluorescence [2] [%] | Percent of cells with intracellular Cy3 fluorescence [3] [%] | Percent of cells with intracellular Cy3 fluorescence [4] [%] | Percent of cells with intracellular Cy3 fluorescence ([4]; listed as Cy3ON without a delivery vector) [%] | Percent of cells with intracellular Cy3 fluorescence (Human hepatoma (Huh-7)) [%] | Percent of cells with intracellular Cy3 fluorescence [5] [%] | Uptake of Cy3-ONs by neurons ([6]; 1 μM Cy3-ONs, 1 h, serum-containing medium) | Neuronal Cy3 fluorescence ([6]; 2 μM Cy3ONs, 30 minutes at 37° C.) | Percent of cells with intracellular Cy3 fluorescence ([6]; Primary rat hippocampal neurons, 1 μM Cy3-ONs, 1 h at 37° C.) [%] | Percent colocalization with Transferrin (hippocampal neurons [7]; 30 min, listed as Cy3ON) [%] | Percent colocalization with Transferrin (hippocampal neurons [7]; 30 min, listed as Cy3ONs) [%] | Percent colocalization with Transferrin (hippocampal neurons [7]; 1 h) [%] | Percent colocalization with Transferrin (hippocampal neurons [7]; 3 h, listed as Cy3ON) [%] | Percent colocalization with Transferrin (hippocampal neurons [7]; 3 h, listed as Cy3ONs) [%] | Percent colocalization with Dextran (hippocampal neurons [8]; listed as Cy3ON) [%] | Percent colocalization with Dextran (hippocampal neurons [8]; listed as Cy3ONs) [%] | Percent colocalization with Transferrin (hippocampal neurons [7]; 30 min) [%] | Percent colocalization with Dextran (hippocampal neurons [8]) [%] |
| --- | --- | --- | --- | --- | --- | --- | --- | --- | --- | --- | --- | --- | --- | --- | --- | --- | --- | --- | --- |
| CN[C@H](CC(=O)O)C(=O)O [NMDA] | increased |  |  |  |  |  |  |  |  |  |  |  |  |  |  |  |  |  |  |
| Cy3-ONs without delivery system: 18-mer 5′-CTGTGAATCCTCCATGAC-3′ (SEQ ID NO:2), targets rat p53 mRNA, labeled at the 5′-end with Cy3 (DNA, 5' {Cy3}, backbone not given here; listed as Rattus norvegicus) |  | 20 | 17 | 51.5 | ~50 | 18.3 | ~5 | taken up by a low percentage of neurons | low level of diffuse cellular fluorescence in only a small percent of cells | 6 | 14.86 ± 1 | 15 | 22.67 ± 1.7 | 24.62 ± 2 | ≤ 25 | 20.13 ± 1.8 | 20 |  |  |
| Lissamine Rhodamine DOPE [N-Rh-DOPE] |  |  |  |  |  |  |  |  |  |  |  |  | 51.88 ± 2.7 |  |  |  |  | 45.56 ± 2.2 | 22.18 ± 1.5 |
